# Tests used:
# normal human fibroblasts [1] = experiment: Cytotoxicity of the fluorescent tracers (paranitrophenylphosphate test); assay type: cell-based; conditions: for Cell viability (% of untreated control): incubation 24 hours
# Procedure: Each concentration is tested on 6 different wells.
# (§1) The selection of the tracer necessitated the preparation and the purification of liposomes, according to the protocol described in Example 1, these liposomes containing varying concentrations of the various hydrosoluble or liposoluble tracers (Table 1, Annex 1). The controls—a free fluorescent tracer—are made by dissolution at the same concentration of fluorescent tracer in the dilution buffer, so as to quantify its cytotoxicty and its spontaneous penetration in the fibroblasts.
# (§2) The fibroblasts are incubated for 24 hours at 37° C. in the presence of the liposomes, and are then rinsed 3 times in pH 7.4 phosphate buffer. First of all, the fluorescence is evaluated dry by spectrofluorimetry with a Cytofluor 4000® (Millipore). Secondly, the intracellular fluorescence is observed for the molecules of interest on an Olympus® reverse microscope (IX70) by using the corresponding excitation filter (objective ×10, ×40 and ×100). Finally, the cytotoxicity of the fluorescent tracers is evaluated in a 96-well plate by incubation for 24 hours as described in Example 1.
# normal human fibroblasts [2] = experiment: Intracellular penetration of fluorescent tracers, free or in liposomes (spectrofluorimetry); assay type: cell-based; conditions: for cell-permeating: free probe; for Penetration in liposome: probe encapsulated in liposome; for Penetration (fluorescence after washing): 0.01% tracer in liposomes; for Penetration (fluorescence after washing) / Penetration free probe: 24 hours, gain (45 PFB-F, 50 TRITC)
# Source text: as §1
# Practically, after extraction from a biopsy originating from abdominal plastic surgery, the fibroblasts are amplified in DF medium, i.e.: DMEM (Dulbecco's Modified Eagle's Medium)/Ham F12 glutamax 50/50 volume/volume, supplemented with 10% of calf serum, with penicillin at a final concentration of 100 UI/millilitre, with gentamicin at a final concentration of 1 microgram/millilitre, with amphotericin B at a final concentration of 1 microgram/millilitre.
# Firstly, after centrifugation, the purified liposomes are taken up into DF culture medium, homogenised in a vortex, and are deposited at the rate of 1 ml per well on the fibroblasts cultivated in 24-well plates (Costar MW24). The controls are made under the same conditions. A non-treated control is also made.
# as §2
# The intracellular penetration of liposomes which contain 5% of soya lecithin, 0.01% of PFB-F or TRITC in the presence or not of 0.5% 25 kDa polyethylenimine (PEI), which are prepared according to the protocol described in Example 1, is analysed after incubation for 24 hours on human fibroblasts cultivated in a 24-well plate, as described in Example 2.
# [3] = Encapsulation of fluorescent tracer in soya lecithin liposomes (yield, leak); assay type: physicochemical
# Procedure: 0.5 g of soya lecithin, 0.01% of fluorescent tracer which is pre-solubilised according to the recommendations of the provider, are introduced into a dish and is diluted in 10 ml of Trizma buffer. After magnetic agitation for 30 minutes at ambient temperature, the mixture is vigorously homogenised for 10 minutes, in thus obtaining a liposomal solution in which the liposomes have an average size which can vary between 100 and 800 nanometres according to the exact conditions of homogenisation.
# The aim of the purification step is to separate the non-encapsulated tracer fraction from the fraction of tracer which is encapsulated in the liposomes. For this, the liposomal solution is centrifuged in a conical tube for 10 minutes at 1,790 g at ambient temperature. The plugs are then recovered and then solubilised in 10 ml of culture medium.
# Liposomes are prepared according to the method described in Example 5 with increasing concentrations of 25 kDa PEI from 0 to 100 μM. After centrifugation at 1,790 g for 10 minutes, the supernatants are quantified by spectrofluorimetry. The yields of encapsulation are calculated with respect to the initial concentration.
# tyrosinase = molecular target: T1, tyrosinase (Homo sapiens, UniProt P14679); experiment: Tyrosinase activity in melanocytes (L-DOPA/MBTH); assay type: cell-based; parameters: unit not given here; conditions: 66 hours; for Depigmenting effect: rate of enzymatic reaction (tyrosinase activity), Free: active applied free, normal human melanocytes; for Depigmenting effect: rate of enzymatic reaction (tyrosinase activity), PEI Liposome: active in 10 μM PEI functionalised liposome; for Depigmenting effect: rate of enzymatic reaction (tyrosinase activity), Soya liposome: active in 2% quaternised soya liposome; for Depigmenting effect: rate of enzymatic reaction (tyrosinase activity), Lipsosome: active in 5% lecithin liposome
# T1 construct: on normal human melanocytes cultivated in 24-well plates and pre-confluent; endogenous in cells; host or cells: normal human melanocytes
# T1 sequence (P14679 19-529): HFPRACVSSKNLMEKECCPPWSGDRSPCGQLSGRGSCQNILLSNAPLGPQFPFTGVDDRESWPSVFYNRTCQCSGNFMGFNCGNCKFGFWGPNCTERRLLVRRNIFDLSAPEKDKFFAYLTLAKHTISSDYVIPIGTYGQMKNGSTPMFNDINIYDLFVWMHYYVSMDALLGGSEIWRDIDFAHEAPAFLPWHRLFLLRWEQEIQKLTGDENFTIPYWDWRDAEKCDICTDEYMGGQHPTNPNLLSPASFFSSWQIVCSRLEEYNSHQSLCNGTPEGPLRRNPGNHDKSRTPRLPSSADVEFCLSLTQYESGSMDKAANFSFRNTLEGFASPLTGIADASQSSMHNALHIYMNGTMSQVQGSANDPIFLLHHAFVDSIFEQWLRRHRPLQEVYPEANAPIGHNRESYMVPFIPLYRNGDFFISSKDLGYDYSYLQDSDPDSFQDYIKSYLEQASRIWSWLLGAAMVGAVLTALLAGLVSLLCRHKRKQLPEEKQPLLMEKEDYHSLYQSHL
# Procedure: Actives are also co-encapsulated: Phytolight® (Coletica, Lyons, France) without 0.05% preservative (cocktail of plant actives), 0.05% arbutine and 1 mM catechin (Sigma). […] The actives which are liposomed or not are incubated for 66 hours at 37° C. under 5% CO2 in MMK2 medium (Sigma). […] The formation of a MBTH-o-quinone compound is characterised by an absorbance value at 490 nm quantified kinetically. The tyrosinase activity is expressed by the slope (rate) of the enzymatic reaction.
# normal human fibroblasts [4] = experiment: Cell viability in the screening of functionalising molecules; conditions: 1% of molecule (25 kDa PEI: 50 μM), 96-well plate
# Procedure: 250 μl of liposomal suspension is added onto cultures of normal human fibroblasts extracted from abdominal plasy and cultivated in a 96-well plate. Each concentration is tested on 6 different wells. The cell viability is evaluated by a test with paranitrophenylphosphate which determines the intracellular alkaline phosphatase activity after three rinses with pH 7.4 phosphate buffer. The percentage of living cells is calculated with respect to a control made without the addition of liposome in the culture well (n=6).
# 55 molecules are firstly tested in triplicate, in comparison with the 50 μM 25 kDa PEI. The intracellular penetration is quantified after 24 hours of incubation on normal human fibroblasts cultivated in 24-well plates as described in Example 2. The cell viability is estimated in a 96-well plate with 200 μl of liposomal suspension.
# The intracellular penetration and the cytotoxicity are evaluated as described in Example 2.
molecule,measurement,setting,value
"Cc1ccc(N(CC(=O)[O-])CC(=O)[O-])c(OCCOc2cc3cc(-c4ncc(C(=O)[O-])o4)oc3cc2N(CC(=O)[O-])CC(=O)[O-])c1.[K+].[K+].[K+].[K+].[K+] [#F-1200 Fura-2. pentapotassium salt, Fura-2. pentapotassium salt]",Toxicity,normal human fibroblasts [1],No
same,cell-permeating,normal human fibroblasts [2],No
same,Penetration in liposome,normal human fibroblasts [2],No
same,Encapsulated,[3],No
OC[C@H]1O[C@@H](Oc2ccc(O)cc2)[C@H](O)[C@@H](O)[C@@H]1O [Arbutin],"Depigmenting effect: rate of enzymatic reaction (tyrosinase activity), Free",tyrosinase,0.004
same,"Depigmenting effect: rate of enzymatic reaction (tyrosinase activity), PEI Liposome",tyrosinase,0
same,"Depigmenting effect: rate of enzymatic reaction (tyrosinase activity), Soya liposome",tyrosinase,0
same,"Depigmenting effect: rate of enzymatic reaction (tyrosinase activity), Lipsosome",tyrosinase,0.001
"CCCCCCCCCCN [Decylamine C10, Decylamine]",Viability,normal human fibroblasts [4],68.5%
"CCCCNCCCC [Dibutylamine 2 C4, Dibutylamine]",Viability,normal human fibroblasts [4],75.7%
"CCCCCCCCCCNCCCCCCCCCC [Didecylamine 2 C10, Didecylamine]",Viability,normal human fibroblasts [4],28.3%
"CCCCCCCCNCCCCCCCC [Dioctylamine 2 C8, Dioctylamine]",Viability,normal human fibroblasts [4],34.7%
"CCCCCCCCCCCCN [Dodecylamine C12, Dodecylamine]",Viability,normal human fibroblasts [4],57%
"CCCCCCCN [Heptylamine C7, Heptylamine]",Viability,normal human fibroblasts [4],39.4%
"CCCCCCN [Hexylamine C6, Hexylamine]",Viability,normal human fibroblasts [4],82.1%
"CCCCCCCCCCCCCCCCCCN [Octadecylamine C18, Octadecylamine]",Viability,normal human fibroblasts [4],61.2%
"CCCCCCCC/C=C\CCCCCCCCN [Oleylamine C18:1, Oleylamine]",Viability,normal human fibroblasts [4],87.1%
"O=C1OC2(c3ccc(O)cc3Oc3cc(O)ccc32)c2ccc(NC(=O)c3c(F)c(F)c(F)c(F)c3F)cc21 [PFB-F, 5-pentafluorobenzoylaminofluorescein]",Cell viability (% of untreated control),normal human fibroblasts [1],110.7%
same,Penetration (fluorescence after washing),normal human fibroblasts [2],65 (gain 45)
same,cell-permeating,normal human fibroblasts [2],No
same,Penetration free probe,normal human fibroblasts [2]; free tracer,8 (gain 45)
same,Penetration in liposome,normal human fibroblasts [2],Yes
same,Encapsulated,[3],Yes
same,leak,[3],No
same,Yield (%) of encapsulation of PFB-F,[3]; PEI 0 μM,89.0%
same,Yield (%) of encapsulation of PFB-F,[3]; PEI 1 μM,92.3%
same,Yield (%) of encapsulation of PFB-F,[3]; PEI 10 μM,91.0%
same,Yield (%) of encapsulation of PFB-F,[3]; PEI 50 μM,87.5%
same,Yield (%) of encapsulation of PFB-F,[3]; PEI 100 μM,86.3%
same,yield of incorporation in the liposomes,[3]; liposomes based on soya lecithin,about 80%
"CCCCCCCCCCCCCCCN [Pentadecylamine C15, Pentadecylamine]",Viability,normal human fibroblasts [4],73%
"CCCN [Propylamine C3, Propylamine]",Viability,normal human fibroblasts [4],103.3%
"CCCCCCCCCCCCCCCCCC[N+](C)(C)Cc1ccccc1.[Cl-] [Stearalkonium chloride, benzyldimethyl (octadecyl) ammonium chloride]",Viability,normal human fibroblasts [4],37.4%
"CCCCCCCCCCCCCCN [Tetradecylamine C14, Tetradecylamine]",Viability,normal human fibroblasts [4],54.8%
CC(O)CN(CCN(CC(C)O)CC(C)O)CC(C)O (stereo not shown) [Tetrahydroxypropyl ethylenediamine],Viability,normal human fibroblasts [4],95.3%
"CCCCCCCCCCCCCN [Tridecylamine C13, Tridecylamine]",Viability,normal human fibroblasts [4],62.6%
"CCCCCCCCCCCN [Undecylamine C11, Undecylamine]",Viability,normal human fibroblasts [4],84%
NNC(=O)COc1cc(S(=O)(=O)[O-])c2ccc3c(S(=O)(=O)[O-])cc(S(=O)(=O)[O-])c4ccc1c2c43.[Na+].[Na+].[Na+] [cascade blue hydrazine trisodium salt],Toxicity,normal human fibroblasts [1],No
same,cell-permeating,normal human fibroblasts [2],No
same,Penetration in liposome,normal human fibroblasts [2],Very low
same,Encapsulated,[3],Yes
"O=S(=O)([O-])c1cc(O)c2ccc3c(S(=O)(=O)[O-])cc(S(=O)(=O)[O-])c4ccc1c2c34.[Na+].[Na+].[Na+] [hydroxypyrene trisulfonic acid, trisodium salt]",cell-permeating,normal human fibroblasts [2],No
same,Penetration in liposome,normal human fibroblasts [2],No
same,Encapsulated,[3],No
Catechin,"Depigmenting effect: rate of enzymatic reaction (tyrosinase activity), Free",tyrosinase,0.007
same,"Depigmenting effect: rate of enzymatic reaction (tyrosinase activity), PEI Liposome",tyrosinase,0
same,"Depigmenting effect: rate of enzymatic reaction (tyrosinase activity), Soya liposome",tyrosinase,0.003
same,"Depigmenting effect: rate of enzymatic reaction (tyrosinase activity), Lipsosome",tyrosinase,0.007
Lysosensor yellow/blue DND 160 [#L7545L Lysosensor yellow/blue DND 160],Toxicity,normal human fibroblasts [1],No
same,cell-permeating,normal human fibroblasts [2],Yes
same,Penetration in liposome,normal human fibroblasts [2],No
same,Encapsulated,[3],Yes
same,leak,[3],Yes
carboxy dichlorofluorescein [#C-369 carboxy dichlorofluorescein],cell-permeating,normal human fibroblasts [2],Yes
same,Encapsulated,[3],Yes
same,leak,[3],Yes
carboxyethyl carboxyffluorescein [#B-1151 carboxyethyl carboxyffluorescein],Encapsulated,[3],No
dextran texas red [#D-3329 dextran texas red],cell-permeating,normal human fibroblasts [2],No
same,Penetration in liposome,normal human fibroblasts [2],No
sulfo fluorescein diacetate [#S-1129 sulfo fluorescein diacetate],Toxicity,normal human fibroblasts [1],No
same,cell-permeating,normal human fibroblasts [2],no
same,Penetration in liposome,normal human fibroblasts [2],Very low
tetramethylrhodamine isothiocyanate [TRITC],Toxicity,normal human fibroblasts [1],No
same,cytotoxicity (in words),normal human fibroblasts [1],slightly cyctotoxic
same,Cell viability (% of untreated control),normal human fibroblasts [1],74.8%
same,Penetration (fluorescence after washing),normal human fibroblasts [2],"1,119 (gain 50)"
same,penetration when added free in the culture medium (in words),normal human fibroblasts [2]; free tracer,penetrates slightly
same,Penetration free probe,normal human fibroblasts [2]; free tracer,295 (gain 50)
same,Penetration in liposome,normal human fibroblasts [2],Yes
same,Encapsulated,[3],Yes

# Source: US9655822B2, “Hydrated lamellar phases or liposomes which contain a fatty monoamine or a cationic polymer which promotes intracellular penetration, and a cosmetic or pharmaceutical composition containing same, as well as a method of screening such a substance” (BASF Beauty Care Solutions France S.A.S., priority 2004, dated 2017)
